Laboratory results taken from patent publication US9617256B2 (priority 2007, dated 2017).
Converted amounts (≈) assume the structure as drawn. Like-named read-outs stand apart in the source and are kept apart here.

Legend:
[1] = test system: APAE001 (ATCC27853); assay: MIC broth microdilution, APAE001; assay type: cell-based, P. aeruginosa; settings: Pseudomonas aeruginosa, ATCC27853, read-out: MIC APAE001, APAE001 (ATCC27853)
Outline: (§1)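 Growth inhibition was scored by CLSI broth microdilution using cation-adjusted Mueller-Hinton broth and a final inoculum between 3×10^5 and 7×10^5 CFU/mL, incubated 18-24 hours at 35° C.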

[2] = test system: AABA1060 (clinical isolate of Acinetobacter baumannii); assay: MIC broth microdilution, AABA1060; assay type: cell-based; settings: Acinetobacter baumannii, read-out: MIC AABA1060
Outline: as §1

[3] = test system: APAE006 in the presence of 8 micrograms per milliliter of polymyxin B nonapeptide; assay type: cell-based, P. aeruginosa; settings: APAE006 with 8 micrograms per milliliter polymyxin B nonapeptide
Outline: (§2)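 Broth microdilution (CLSI); CA-MHB; 3×10^5–7×10^5 CFU/mL final; 2-fold dilutions; 35° C., ambient air, 18-24 h. APAE006 lacks all active efflux pumps.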

[4] = test system: AECO001 (ATCC25922); assay: MIC broth microdilution, AECO001; assay type: cell-based, E. coli; settings: Escherichia coli
Outline: as §1

[5] = test system: ASAU001 (laboratory strain of S. aureus, ATCC29213); assay: MIC broth microdilution, ASAU001; assay type: cell-based; settings: Staphylococcus aureus, ATCC29213, read-out: MIC ASAU001
Outline: as §1

[6] = test system: AECO063 (ATCC25922 bearing an acrAB mutation); assay: microbe, parasite or virus in culture; assay type: cell-based, E. coli; settings: Escherichia coli, ATCC25922, read-out: MIC AECO063
Outline: as §1

[7] = test system: APAE006 (strain of P. aeruginosa in which all efflux pumps are inactivated); assay: microbe, parasite or virus in culture; assay type: cell-based; settings: Pseudomonas aeruginosa, read-out: MIC APAE006, APAE006, all efflux pumps inactivated
Outline: as §2

[8] = ATCC25922, read-out: MIC AECO001
[9] = ATCC25922, read-out: MIC AECO001 HSA AGP

SMILES	MIC [1] [µg/mL]	MIC [2] [µg/mL]	MIC APAE006 + PMBN [3]	MIC [4, 8] [µg/mL]	MIC [4, 9] [µg/mL]	MIC [5] [µg/mL]	MIC [6] [µg/mL]	MIC [7] [µg/mL]
C[C@@H](N)[C@H](NC(=O)c1ccc(C#CC#Cc2ccc(OC3CC3)cc2)cc1)C(=O)NO [Example 84-1, N-((1S,2R)-2-Amino-1-hydroxycarbamoyl-propyl)-4-[4-(4-cyclopropoxy-phenyl)-buta-1,3-diynyl]-benzamide]	16 to 64 (≈ 38.3 to 153 µM)	16 to 64 (≈ 38.3 to 153 µM)	A (MIC's of 2.0 μg/mL or less = A)	< 2	2 to 16 (≈ 4.79 to 38.3 µM)	16 to 64 (≈ 38.3 to 153 µM)	< 2	2 to 16 (≈ 4.79 to 38.3 µM)
CC(C)(N)[C@@H](NC(=O)c1ccc(C#CC#CC2CC2)cc1)C(=O)NO [Example 91-11]	2 to 16 (≈ 5.89 to 47.1 µM)	16 to 64 (≈ 47.1 to 189 µM)	A (MIC's of 2.0 μg/mL or less = A)	< 2	16 to 64 (≈ 47.1 to 189 µM)	16 to 64 (≈ 47.1 to 189 µM)	< 2	< 2
C[C@@H](O)[C@H](NC(=O)c1ccc(C#Cc2ccncc2)cc1)C(=O)NO [Example 133-13]	16 to 64 (≈ 47.1 to 189 µM)	16 to 64 (≈ 47.1 to 189 µM)	A (MIC's of 2.0 μg/mL or less = A)	16 to 64 (≈ 47.1 to 189 µM)	16 to 64 (≈ 47.1 to 189 µM)	16 to 64 (≈ 47.1 to 189 µM)	2 to 16 (≈ 5.89 to 47.1 µM)	< 2
CC(C)(O)[C@H](NC(=O)c1ccc(C#C/C=C/c2ccncc2)cc1)C(=O)NO [Example 106-2]	2 to 16 (≈ 5.27 to 42.2 µM)	2 to 16 (≈ 5.27 to 42.2 µM)	A (MIC's of 2.0 μg/mL or less = A)	< 2	2 to 16 (≈ 5.27 to 42.2 µM)	16 to 64 (≈ 42.2 to 169 µM)	< 2	< 2
CC(C)(O)[C@H](NC(=O)c1ccc(C#C/C=C/c2ccc(F)cc2)cc1)C(=O)NO [Example 106-7]	2 to 16 (≈ 5.05 to 40.4 µM)	2 to 16 (≈ 5.05 to 40.4 µM)	A (MIC's of 2.0 μg/mL or less = A)	< 2	2 to 16 (≈ 5.05 to 40.4 µM)	16 to 64 (≈ 40.4 to 161 µM)	< 2	< 2
C[C@@H](O)[C@H](NC(=O)c1ccc(/C=C/C#Cc2cccnc2)cc1)C(=O)NO [Example 114-13]	2 to 16 (≈ 5.47 to 43.8 µM)	2 to 16 (≈ 5.47 to 43.8 µM)	A (MIC's of 2.0 μg/mL or less = A)	< 2	2 to 16 (≈ 5.47 to 43.8 µM)	16 to 64 (≈ 43.8 to 175 µM)	< 2	< 2
CC(C)(N)[C@H](NC(=O)c1ccc(/C=C/C#Cc2ccc(CNC3CC3)cc2)cc1)C(=O)NO [Example 113-6]	< 2	< 2	A (MIC's of 2.0 μg/mL or less = A)	< 2	< 2	16 to 64 (≈ 35.8 to 143 µM)	< 2	< 2
CC(C)(N)[C@H](NC(=O)c1ccc(C#CC#Cc2cccc(F)c2)cc1)C(=O)NO [Example 82-27]	2 to 16 (≈ 5.08 to 40.7 µM)	2 to 16 (≈ 5.08 to 40.7 µM)	A (MIC's of 2.0 μg/mL or less = A)	< 2	2 to 16 (≈ 5.08 to 40.7 µM)	16 to 64 (≈ 40.7 to 163 µM)	< 2	< 2
C[C@@H](N)[C@H](NC(=O)c1ccc(C#Cc2ccc(COC3CC3)cc2)cc1)C(=O)NO [Example 123-1, N-((1S,2R)-2-Amino-1-hydroxycarbamoyl-propyl)-4-(4-cyclopropoxymethyl-phenylethynyl)-benzamide]	2 to 16 (≈ 4.91 to 39.3 µM)	2 to 16 (≈ 4.91 to 39.3 µM)	A (MIC's of 2.0 μg/mL or less = A)	< 2	2 to 16 (≈ 4.91 to 39.3 µM)	16 to 64 (≈ 39.3 to 157 µM)	< 2	< 2
CC(C)(N)[C@H](NC(=O)c1ccc(C#CC#Cc2cncs2)cc1)C(=O)NO [Example 88-16]	< 2	< 2	A (MIC's of 2.0 μg/mL or less = A)	< 2	2 to 16 (≈ 5.23 to 41.8 µM)	16 to 64 (≈ 41.8 to 167 µM)	< 2	< 2
